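48-hour exposure; five concentrations; linearly interpolated endpoints. GI50: concentration for 50% inhibition of growth. TGI marks complete inhibition of growth.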
Experiments:
Test in all cases: NCI-60 cell line screen, 48 h
CAKI-1 renal = tested on: CAKI-1 renal
ACHN renal = tested on: ACHN renal
SN12C renal = tested on: SN12C renal
MDA-MB-435 = tested on: MDA-MB-435
RPMI-8226 leukemia = tested on: RPMI-8226 leukemia
K-562 leukemia = tested on: K-562 leukemia
PC-3 prostate = tested on: PC-3 prostate
IGROV1 ovarian = tested on: IGROV1 ovarian
M14 melanoma = tested on: M14 melanoma
U251 CNS = tested on: U251 CNS
A549 NSCLC = tested on: A549 NSCLC
EKVX NSCLC = tested on: EKVX NSCLC
NCI/ADR-RES ovarian = tested on: NCI/ADR-RES ovarian
MCF7 breast = tested on: MCF7 breast
786-0 renal = tested on: 786-0 renal
SF-268 CNS = tested on: SF-268 CNS
HL-60(TB) leukemia = tested on: HL-60(TB) leukemia
KM12 colon = tested on: KM12 colon
OVCAR-5 ovarian = tested on: OVCAR-5 ovarian
UACC-62 melanoma = tested on: UACC-62 melanoma
MOLT-4 leukemia = tested on: MOLT-4 leukemia
UO-31 renal = tested on: UO-31 renal
HCT-116 colon = tested on: HCT-116 colon
SK-MEL-28 melanoma = tested on: SK-MEL-28 melanoma
COLO 205 colon = tested on: COLO 205 colon
NCI-H23 lung = tested on: NCI-H23 lung
SK-MEL-5 melanoma = tested on: SK-MEL-5 melanoma
SF-295 CNS = tested on: SF-295 CNS
SK-MEL-2 melanoma = tested on: SK-MEL-2 melanoma
HOP-92 NSCLC = tested on: HOP-92 NSCLC
HCT-15 colon = tested on: HCT-15 colon
OVCAR-4 ovarian = tested on: OVCAR-4 ovarian
NCI-H226 lung = tested on: NCI-H226 lung
HCC-2998 colon = tested on: HCC-2998 colon
BT-549 breast = tested on: BT-549 breast
OVCAR-3 ovarian = tested on: OVCAR-3 ovarian
DU-145 prostate = tested on: DU-145 prostate
MDA-MB-231 breast = tested on: MDA-MB-231 breast
NCI-H460 lung = tested on: NCI-H460 lung
NCI-H522 lung = tested on: NCI-H522 lung
HT29 colon = tested on: HT29 colon
LOX IMVI melanoma = tested on: LOX IMVI melanoma
SNB-19 CNS = tested on: SNB-19 CNS
A498 renal = tested on: A498 renal
OVCAR-8 ovarian = tested on: OVCAR-8 ovarian
RXF 393 renal = tested on: RXF 393 renal
HS 578T breast = tested on: HS 578T breast
MALME-3M melanoma = tested on: MALME-3M melanoma
CCRF-CEM leukemia = tested on: CCRF-CEM leukemia
SF-539 CNS = tested on: SF-539 CNS
TK-10 renal = tested on: TK-10 renal
SW-620 colon = tested on: SW-620 colon
UACC-257 melanoma = tested on: UACC-257 melanoma
T-47D breast = tested on: T-47D breast
SR leukemia = tested on: SR leukemia
SK-OV-3 ovarian = tested on: SK-OV-3 ovarian

For COc1ccc(Cn2cnc3cc(C(=O)Nc4cccc5ccccc45)ccc32)c(OC)c1, the GI50 (CAKI-1 renal) was 38.7 nM, the TGI (CAKI-1 renal) was greater than 100000 nM and the GI50 (ACHN renal) was 78 nM. For the same compound, the TGI (ACHN renal) was greater than 100000 nM, the GI50 (SN12C renal) was 69.1 nM and the TGI (SN12C renal) was greater than 100000 nM. For the same compound, the GI50 (MDA-MB-435) was 17.3 nM, the TGI (MDA-MB-435) was 35.8 nM and the GI50 (RPMI-8226 leukemia) was 36.8 nM. It also gave a TGI (RPMI-8226 leukemia) of 12500 nM, a GI50 (K-562 leukemia) of 34.4 nM and a TGI (K-562 leukemia) greater than 100000 nM. For the same compound, the GI50 (PC-3 prostate) was 51 nM, the TGI (PC-3 prostate) was greater than 100000 nM and the GI50 (IGROV1 ovarian) was 65.3 nM. It also gave a TGI (IGROV1 ovarian) greater than 100000 nM, a GI50 (M14 melanoma) of 27.5 nM and a GI50 (U251 CNS) of 39.8 nM. For the same compound, the TGI (U251 CNS) was greater than 100000 nM, the GI50 (A549 NSCLC) was 64.4 nM and the TGI (A549 NSCLC) was greater than 100000 nM. It also gave a GI50 (EKVX NSCLC) of 65.4 nM, a TGI (EKVX NSCLC) greater than 100000 nM and a GI50 (NCI/ADR-RES ovarian) of 42 nM. The TGI (NCI/ADR-RES ovarian) was greater than 100000 nM, the GI50 (MCF7 breast) was 35.7 nM and the TGI (MCF7 breast) was greater than 100000 nM. For the same compound, the GI50 (786-0 renal) was 45 nM, the TGI (786-0 renal) was greater than 100000 nM and the GI50 (SF-268 CNS) was 104 nM. For the same compound, the TGI (SF-268 CNS) was greater than 51700 nM, the GI50 (HL-60(TB) leukemia) was 31.9 nM and the TGI (HL-60(TB) leukemia) was 145 nM. It also gave a GI50 (KM12 colon) of 39.1 nM, a TGI (KM12 colon) of 8060 nM and a GI50 (OVCAR-5 ovarian) of 180 nM. The TGI (OVCAR-5 ovarian) was greater than 100000 nM, the GI50 (UACC-62 melanoma) was 53.1 nM and the TGI (UACC-62 melanoma) was greater than 66700 nM. It also gave a GI50 (MOLT-4 leukemia) of 62.1 nM, a TGI (MOLT-4 leukemia) greater than 100000 nM and a GI50 (UO-31 renal) of 75.9 nM. It also gave a TGI (UO-31 renal) greater than 100000 nM, a GI50 (HCT-116 colon) of 37.4 nM and a TGI (HCT-116 colon) of 4490 nM. The GI50 (SK-MEL-28 melanoma) was 1630 nM, the TGI (SK-MEL-28 melanoma) was greater than 100000 nM and the GI50 (COLO 205 colon) was 46.2 nM. It also gave a TGI (COLO 205 colon) of 724 nM, a GI50 (NCI-H23 lung) of 89.8 nM and a TGI (NCI-H23 lung) greater than 100000 nM. It also gave a GI50 (SK-MEL-5 melanoma) of 50.2 nM, a TGI (SK-MEL-5 melanoma) of 6710 nM and a GI50 (SF-295 CNS) of 34.1 nM. The TGI (SF-295 CNS) was greater than 100000 nM, the GI50 (SK-MEL-2 melanoma) was 945 nM and the TGI (SK-MEL-2 melanoma) was greater than 100000 nM. For the same compound, the GI50 (HOP-92 NSCLC) was 153 nM, the TGI (HOP-92 NSCLC) was greater than 100000 nM and the GI50 (HCT-15 colon) was 44.3 nM. The TGI (HCT-15 colon) was greater than 51100 nM, the GI50 (OVCAR-4 ovarian) was 122 nM and the TGI (OVCAR-4 ovarian) was greater than 100000 nM. For the same compound, the GI50 (NCI-H226 lung) was 111 nM, the TGI (NCI-H226 lung) was greater than 100000 nM and the GI50 (HCC-2998 colon) was 197 nM. For the same compound, the TGI (HCC-2998 colon) was 14600 nM, the GI50 (BT-549 breast) was 60.3 nM and the TGI (BT-549 breast) was 6530 nM. The GI50 (OVCAR-3 ovarian) was 26.7 nM, the TGI (OVCAR-3 ovarian) was 77.6 nM and the GI50 (DU-145 prostate) was 43.9 nM. It also gave a TGI (DU-145 prostate) of 3360 nM, a GI50 (MDA-MB-231 breast) of 89.4 nM and a TGI (MDA-MB-231 breast) of 4310 nM. For the same compound, the GI50 (NCI-H460 lung) was 36.3 nM, the TGI (NCI-H460 lung) was 1210 nM and the GI50 (NCI-H522 lung) was 39 nM. For the same compound, the GI50 (HT29 colon) was 34.5 nM, the TGI (HT29 colon) was 5180 nM and the GI50 (LOX IMVI melanoma) was 61.1 nM. For the same compound, the TGI (LOX IMVI melanoma) was greater than 100000 nM, the GI50 (SNB-19 CNS) was 46.5 nM and the TGI (SNB-19 CNS) was greater than 100000 nM. For the same compound, the GI50 (A498 renal) was 22.6 nM, the TGI (A498 renal) was 77.1 nM and the GI50 (OVCAR-8 ovarian) was 60.3 nM. It also gave a TGI (OVCAR-8 ovarian) greater than 100000 nM, a GI50 (RXF 393 renal) of 35.5 nM and a TGI (RXF 393 renal) greater than 100000 nM. It also gave a GI50 (HS 578T breast) of 35.1 nM, a TGI (HS 578T breast) greater than 100000 nM and a GI50 (MALME-3M melanoma) of 61.4 nM. For the same compound, the TGI (MALME-3M melanoma) was greater than 100000 nM, the GI50 (CCRF-CEM leukemia) was 40.7 nM and the TGI (CCRF-CEM leukemia) was greater than 100000 nM. For the same compound, the GI50 (SF-539 CNS) was 31.6 nM, the TGI (SF-539 CNS) was 147 nM and the GI50 (TK-10 renal) was 1170 nM. It also gave a TGI (TK-10 renal) greater than 100000 nM, a GI50 (SW-620 colon) of 33.4 nM and a TGI (SW-620 colon) greater than 100000 nM. It also gave a GI50 (UACC-257 melanoma) of 39000 nM, a TGI (UACC-257 melanoma) greater than 100000 nM and a GI50 (T-47D breast) of 37.2 nM. The TGI (T-47D breast) was greater than 100000 nM, the GI50 (SR leukemia) was 22.8 nM and the TGI (SR leukemia) was greater than 100000 nM. It also gave a GI50 (SK-OV-3 ovarian) of 106 nM and a TGI (SK-OV-3 ovarian) greater than 100000 nM.
